# According to paper PMC4226840, “An open-label study to determine the maximum tolerated dose of the multitargeted tyrosine kinase inhibitor CEP-11981 in patients with advanced cancer” (Investigational New Drugs, 2014):
# Legend:
# [1] = target: fibroblast growth factor receptor-1; set-up: method as in PMID 22148921; details: cited from earlier work
# VEGFR-2/KDR = assay: Ex vivo bioassay of cellular VEGFR-2/KDR kinase inhibition with patient plasma in TrkA-VEGFR-2/KDR chimeric PAE cells; type: cell-based
# Protocol: Pharmacokinetic parameters calculated after a single dose of CEP-11981 included area under the plasma drug concentration versus time curve (AUC) from zero to infinity (AUC0-∞), to the last measurable concentration (AUC0-t), and to 24 h (AUC0–24); maximum observed plasma drug concentration (Cmax); time to maximum observed plasma drug concentration (Tmax); terminal elimination half-life (t½); and predicted accumulation ratio (Rpred), which was defined as AUC0–∞ (day 1, cycle 1)/AUC0–24 (day 1, cycle 1). Pharmacokinetic parameters calculated after multiple doses included AUC0-t, Cmax, Tmax, and t½, and observed accumulation ratio (Robs). Robs was defined as AUC for 1 dosing interval following multiple doses (AUCτ; day 15, cycle 1)/AUC0–24 (day 1, cycle 1). […] Pharmacodynamics was assessed by VEGFR-2/KDR inhibitory activity in response to CEP-11981 treatment.
# The venous blood samples for pharmacokinetic analysis were collected on days 1 and 15 of dosing during cycle 1 immediately before dose administration and at 0.5, 1, 1.5, 2, 3, 4, 6, 8, 12 (this sample was optional and could be collected from 10 to 14 h), and 24 h postdose, as well as on days 8, 22, 29, and 43. The venous blood samples for pharmacokinetic-pharmacodynamic analysis were collected on days 1 and 15 of dosing during cycle 1 immediately before dose administration and at 1 h postdose, and on day 43. At each draw, 2 samples were obtained in 6-mL sodium heparinized vacutainers. Plasma was obtained and stored at −70 °C until shipment to the sponsor for analysis.
# A bioassay with engineered chimeric porcine aortic endothelial (PAE) cell lines stably expressing a TrkA-VEGFR-2/KDR domain was used to evaluate human plasma-associated shifts in cellular IC50 for CEP-11981 inhibition of ligand-stimulated VEGFR-2/KDR phosphorylation. Plasma samples for the bioassay were obtained 1 h postdose and on days 1 and 15; they were collected from patients across cohorts.
# VEGFR-2/KDR, sequence (P35968 786-1356 limits assumed): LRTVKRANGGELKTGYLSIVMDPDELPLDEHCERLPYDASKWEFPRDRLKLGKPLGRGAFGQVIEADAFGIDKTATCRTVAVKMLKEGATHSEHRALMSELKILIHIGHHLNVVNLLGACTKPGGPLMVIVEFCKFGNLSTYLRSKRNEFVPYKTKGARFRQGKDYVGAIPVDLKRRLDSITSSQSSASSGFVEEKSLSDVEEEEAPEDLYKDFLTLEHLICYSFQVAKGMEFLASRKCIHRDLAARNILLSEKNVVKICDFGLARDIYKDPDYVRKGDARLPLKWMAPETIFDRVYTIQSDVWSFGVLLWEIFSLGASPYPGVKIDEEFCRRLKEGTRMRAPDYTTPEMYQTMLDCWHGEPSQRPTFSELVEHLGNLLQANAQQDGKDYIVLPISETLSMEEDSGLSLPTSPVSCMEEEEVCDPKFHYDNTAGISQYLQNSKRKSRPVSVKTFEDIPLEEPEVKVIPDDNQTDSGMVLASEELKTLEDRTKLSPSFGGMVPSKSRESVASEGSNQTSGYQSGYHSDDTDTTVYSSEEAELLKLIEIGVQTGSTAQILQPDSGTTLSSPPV
substance,measurement,setting,value
"11-(2-methylpropyl)-12,13-dihydro-2-methyl-8-(pyrimidin-2-ylamino)-4H-indazolo[5,4-a]pyrrolo[3,4-c]carbazol-4-one [CEP-11981]",IC50,[1],13 nM
same,Patients with quintile 5 ex vivo VEGFR-2/KDR inhibition,VEGFR-2/KDR; 97.4 mg/m^2,3 of 5
same,Patients with quintile 5 ex vivo VEGFR-2/KDR inhibition,VEGFR-2/KDR; 126.6 mg/m^2,1 of 1
same,Inhibition of VEGFR-2/KDR kinase,"VEGFR-2/KDR; plasma from lower dose cohorts (3.0, 4.2, 5.9, 11.8, and 19.7 mg/m^2), normalized to predose baseline",Less than 50%
same,Normalized mean cellular VEGFR-2/KDR inhibition,"VEGFR-2/KDR; plasma primarily from 73.0, 97.4, and 126.6 mg/m^2 cohorts (quintile 5)",≥ 81%
